The values below come from publication PMC9668832, “Increased slow dynamics defines ligandability of BTB domains” (Nature Communications, 2022).

For this assay, the target named is T1, MIZ1^BTB (Homo sapiens, UniProt Q13105).
T1 construct: gene ZBTB17; BTB domain, residues 1-115; N-terminal Trx-His6 tag cleaved with PreScission; E. coli BL21(DE3); 13C,15N-labelled; homodimer in solution
T1 sequence (Q13105 1-115): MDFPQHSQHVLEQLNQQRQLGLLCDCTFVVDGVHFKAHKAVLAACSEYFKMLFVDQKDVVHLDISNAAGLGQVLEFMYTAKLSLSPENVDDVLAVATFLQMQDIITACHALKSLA
Kind of assay: 1H-15N HSQC NMR titration. The assay is classed as binding.
Molecule `Nc1ccc(-n2cnc(Cl)c2Cl)cc1` [2GG4] showed a Kd of 68 ± 9 µM. The result for `OC1(c2ccc(Cl)c(C(F)(F)F)c2)CCNCC1` [4CC2] reads 425 ± 59 µM. `Cc1nc2ccc(Cl)cc2nc1C` [5DD7]: binding was put at a Kd of 870 ± 140 µM.
